Biological target: GABAa receptor
Assay: GABAa receptor binding assay: inhibition of 3H-RO15-1788 (3H-Flumazenil) binding to rat cortical tissue
Conditions: 0.5 nM 3H-RO15-1788, 30 min at 4° C., nonspecific binding with 1.0 μM diazepam
Description: The pharmaceutical utility of compounds of this invention are indicated by the following assay for GABAa receptor activity.
Assays are carried out as described in Thomas and Tallman (J. Bio. Chem. 156: 9838-9842, J. Neurosci. 3:433-440, 1983). Rat cortical tissue is dissected and homogenized in 25 volumes (w/v) of 0.05M Tris HCl buffer (pH 7.4 at 4° C.). The tissue homogenate is centrifuged in the cold (4°) at 20,000×g for 20'. The supernatant is decanted and the pellet is rehomogenized in the same volume of buffer and again centrifuged at 20,000×g. The supernatant is decanted and the pellet is frozen at -20° C. overnight. The pellet is then thawed and rehomogenized in 25 volume (original wt/vol) of buffer and the procedure is carried out twice. The pellet is finally resuspended in 50 volumes (w/vol of 0.05M Tris HCl buffer (pH 7.4 at […]).
Incubations contain 100 μl of tissue homogenate, 100 μl of radioligand 0.5 nM (^3 H-RO15-1788 [^3 H-Flumazenil] specific activity 80 Ci/mmol), drug or blocker and buffer to a total volume of 500 μl. Incubations are carried for 30 min at 4° C. then are rapidly filtered through GFB filters to separate free and bound ligand. Filters are washed twice with fresh 0.05M Tris HCl buffer (pH 7.4 at 4° C.) and counted in a liquid scintillation counter. 1.0 μM diazepam is added to some tubes to determine nonspecific binding. Data are collected in triplicate determinations, averaged and % inhibition of total specific binding is calculated. Total Specific Binding=Total-Nonspecific. In some cases, the amounts of unlabeled drugs is varied and total displacement curves of binding are carried out. Data are converted to a form for the calculation of IC50 and Hill Coefficient (nH).

| SMILES | IC50 [nM] |
| --- | --- |
| COc1ccc(-c2cnc3[nH]c4c(c3n2)CCCC4)c(F)c1 [Compound 11, 2-(2-Fluoro-4-methoxyphenyl)-6,7,8,9-tetrahydro-5H-indolo[2,3-b]pyrazine] | 29 |
| COc1ccc(F)c(-c2cnc3[nH]c4c(c3n2)CCCC4)c1 [Compound 1, 2-(2-Fluoro-5-methoxyphenyl)-6,7,8,9-tetrahydro-5H-indolo[2,3-b]pyrazine] | 200 |
| COc1ccc(-c2cnc3[nH]c4ccccc4c3n2)c(F)c1 [Compound 12, 2-(2-Fluoro-4-methoxyphenyl)-5H-indolo[2,3-b]pyrazine] | 533 |
| Fc1ccccc1-c1cnc2[nH]c3c(c2n1)CCCC3 [Compound 5, 2-(2-Fluorophenyl)-6,7,8,9-tetrahydro-5H-indolo[2,3-b]pyrazine] | 45 |

Tested on: benzodiazepine binding site
Assay: not given
Conditions: cited from earlier work

| SMILES | block of GABA-agonist enhancement of benzodiazepine binding |
| --- | --- |
| CN1CCc2cc3c(cc2[C@@H]1[C@H]1OC(=O)c2c1ccc1c2OCO1)OCO3 [(-) bicuculline] | much less active |
| CN1CCc2cc3c(cc2[C@H]1[C@@H]1OC(=O)c2c1ccc1c2OCO1)OCO3 [(+) bicuculline] | blocked |

From patent US5286860A (priority 1992, dated 1994)
